Assays:
[1] = test system: MTAP^DEL and KRAS^G12D pancreatic tumor xenograft KP4 model; experiment: MRTX1719 + KRAS G12D inhibitor combination study, KP4 xenograft; format: in vivo, nu/nu mice; conditions: MRTX1133 30 mg/kg BID IP; for Tumor volume: n=5/group, method gives mm^3, in mm³; for % TGI (Tumor Growth Inhibition): final vs initial treated tumor volume relative to vehicle, MRTX1719 100 mg/kg QD PO
Description: (§1) Immunodeficient female mice were implanted with human cancer models harboring homozygous deletion of the MTAP gene (MTAP^DEL) and a KRAS^G12D mutation. Mouse health was monitored daily, and caliper measurements began when tumors were palpable. Tumor volume measurements were determined utilizing the formula 0.5×L×W2 in which L refers to length and W refers to width of each tumor. When tumors reached approximately 200-300 mm^3, animals were randomized to receive A) vehicle, B) a PRMT5 inhibitor administered orally (PO) formulated in 0.5% methylcellulose (4000 cps)/0.2% Tween80 in water, C) KRAS G12D inhibitor administered via intraperitoneal injection (IP) formulated in 10% Captisol in 50 mM Citrate buffer pH 5.0, or D) the PRMT5 inhibitor and KRAS G12D inhibitor. Tumor volumes were measured twice a week (n=5/treatment group). Tumor Growth Inhibition (% TGI) was calculated when the average final treated tumor volume was greater than initial treated tumor volume using the formula: (1-(Final Drug Treated Tumor Volume—Initial Drug Treated Tumor Volume)/(Final Vehicle Treated Tumor Volume -Initial Vehicle Treated Tumor Volume))*100. Percent Regression (% Regression) was calculated when the average tumor volume of final treated tumors was less than initial treated tumor volume using the formula: (−100%)*(1−((Final treated tumor volume)/(Initial treated tumor volume)).
This example was conducted in immunodeficient female nu/nu mice that were implanted with 5×10^6 KP4 pancreatic cancer cells in 50% Matrigel. according to the study procedure described above. The PRMT5 inhibitor was MRTX1719 administered at 100 mg/kg once a day (QD). MRTX1719 used is a described herein.
(§2) The KRAS^G12D inhibitor used in this example was MRTX1133 administered at 30 mg/kg twice a day (BID). MRTX1133 used is as described herein.

[2] = test system: MTAP^DEL and KRAS^G12D pancreatic tumor xenograft SU8686 model; experiment: MRTX1719 + KRAS G12D inhibitor combination study, SU8686 xenograft; format: in vivo, nu/nu mice; conditions: for Tumor volume: MRTX1133 30 mg/kg BID IP, n=5/group, method gives mm^3
Description: as §1
This example was conducted in immunodeficient female nu/nu mice that were implanted with 5×10^6 SU8686 pancreatic cancer cells in 50% Matrigel. according to the study procedure described above. The PRMT5 inhibitor was MRTX1719 administered at 100 mg/kg once a day (QD). MRTX1719 used is as described herein.
as §2

[3] = Study Day 0, MRTX1719 100 mg/kg QD PO
[4] = Study Day 3, MRTX1719 100 mg/kg QD PO
[5] = Study Day 7, MRTX1719 100 mg/kg QD PO
[6] = Study Day 10, MRTX1719 100 mg/kg QD PO
[7] = Study Day 14, MRTX1719 100 mg/kg QD PO
[8] = Study Day 17, MRTX1719 100 mg/kg QD PO
[9] = Study Day 21, MRTX1719 100 mg/kg QD PO
[10] = Study Day 24, MRTX1719 100 mg/kg QD PO
[11] = Study Day 28, MRTX1719 100 mg/kg QD PO
[12] = Study Day 31, MRTX1719 100 mg/kg QD PO
[13] = Study Day 2, MRTX1719 100 mg/kg QD PO
[14] = Study Day 9, MRTX1719 100 mg/kg QD PO
[15] = Study Day 13, MRTX1719 100 mg/kg QD PO
[16] = Study Day 16, MRTX1719 100 mg/kg QD PO
[17] = Study Day 20, MRTX1719 100 mg/kg QD PO
[18] = Study Day 23, MRTX1719 100 mg/kg QD PO
[19] = Study Day 34, MRTX1719 100 mg/kg QD PO
[20] = Study Day 37, MRTX1719 100 mg/kg QD PO
[21] = Study Day 41, MRTX1719 100 mg/kg QD PO
[22] = Study Day 44, MRTX1719 100 mg/kg QD PO
[23] = Study Day −1, MRTX1719 100 mg/kg QD PO

C#Cc1c(F)ccc2cc(O)cc(-c3ncc4c(N5CC6CCC(C5)N6)nc(OC[C@@]56CCCN5C[C@H](F)C6)nc4c3F)c12 [MRTX1133]
Tumor volume [1, 3]: 276
Tumor volume [1, 4]: 202
Tumor volume [1, 5]: 132
Tumor volume [1, 6]: 99
Tumor volume [1, 7]: 80
Tumor volume [1, 8]: 91
Tumor volume [1, 9]: 144
Tumor volume [1, 10]: 250
Tumor volume [1, 11]: 518
Tumor volume [1, 12]: 766
Tumor volume ([1]; Study Day 35, MRTX1719 100 mg/kg QD PO): 1064
% TGI (Tumor Growth Inhibition) [1]: 53.8%
Tumor volume [2, 13]: 180 mm³
Tumor volume [2, 5]: 143 mm³
Tumor volume [2, 14]: 142 mm³
Tumor volume [2, 15]: 146 mm³
Tumor volume [2, 16]: 145 mm³
Tumor volume [2, 17]: 164 mm³
Tumor volume [2, 18]: 166 mm³
Tumor volume [2, 11]: 151 mm³
Tumor volume [2, 12]: 183 mm³
Tumor volume [2, 19]: 191 mm³
Tumor volume [2, 20]: 209 mm³
Tumor volume [2, 21]: 213 mm³
Tumor volume [2, 22]: 204 mm³
Tumor volume [2, 23]: 212 mm³
% Regression ([2]; final vs initial treated tumor volume, MRTX1133 30 mg/kg BID IP alone or with MRTX1719 100 mg/kg QD PO): −4.2%

Cn1ncc(-c2ccc3c(=O)[nH]nc(CN)c3c2)c1-c1c(F)c(Cl)cc(OC2CC2)c1C#N [MRTX1719]
Tumor volume [1, 3]: 277
Tumor volume [1, 4]: 431
Tumor volume [1, 5]: 616
Tumor volume [1, 6]: 716
Tumor volume [1, 7]: 772
Tumor volume [1, 8]: 887
Tumor volume [1, 9]: 1222
Tumor volume [1, 10]: 1487
% TGI (Tumor Growth Inhibition) [1]: 29.1%
Tumor volume [2, 13]: 255 mm³
Tumor volume [2, 5]: 317 mm³
Tumor volume [2, 14]: 369 mm³
Tumor volume [2, 15]: 415 mm³
Tumor volume [2, 16]: 464 mm³
Tumor volume [2, 17]: 467 mm³
Tumor volume [2, 18]: 419 mm³
Tumor volume [2, 11]: 396 mm³
Tumor volume [2, 12]: 373 mm³
Tumor volume [2, 19]: 372 mm³
Tumor volume [2, 20]: 362 mm³
Tumor volume [2, 21]: 356 mm³
Tumor volume [2, 22]: 337 mm³
Tumor volume [2, 23]: 200 mm³
% TGI (Tumor Growth Inhibition) ([2]; final vs initial treated tumor volume relative to vehicle, MRTX1719 100 mg/kg QD PO): 88.3%
